How the values were obtained:
Assay type in all cases: functional
[1] = test system: Nilaparvata lugens; assay: Effect on life span in Nilaparvata lugens (brown planthopper) adult at 0.00064 ppm measured after 7 days relative to control
[2] = test system: Nilaparvata lugens; assay: Effect on life span in Nilaparvata lugens (brown planthopper) adult at 0.016 ppm measured after 7 days relative to control
[3] = test system: Nilaparvata lugens; assay: Effect on life span in Nilaparvata lugens (brown planthopper) adult at 0.4 ppm measured after 7 days relative to control
[4] = test system: Nilaparvata lugens; assay: Effect on life span in Nilaparvata lugens (brown planthopper) adult at 10 ppm measured after 7 days relative to control
[5] = test system: Nilaparvata lugens; assay: Effect on development of ovarioles in Nilaparvata lugens (brown planthopper) assessed as number of ovarioles at 0.00064 ppm measured after 7 days relative to control
[6] = test system: Nilaparvata lugens; assay: Effect on development of ovarioles in Nilaparvata lugens (brown planthopper) assessed as number of ovarioles at 0.016 ppm measured after 7 days relative to control
[7] = test system: Nilaparvata lugens; assay: Effect on development of ovarioles in Nilaparvata lugens (brown planthopper) assessed as number of ovarioles at 0.4 ppm measured after 7 days relative to control
[8] = test system: Nilaparvata lugens; assay: Effect on egg maturity in Nilaparvata lugens (brown planthopper) at 0.00064 ppm measured after 7 days relative to control
[9] = test system: Nilaparvata lugens; assay: Effect on egg maturity in Nilaparvata lugens (brown planthopper) at 0.016 ppm measured after 7 days relative to control
[10] = test system: Nilaparvata lugens; assay: Effect on egg maturity in Nilaparvata lugens (brown planthopper) at 0.4 ppm measured after 7 days relative to control
[11] = test system: Nilaparvata lugens; assay: Effect on hatchability in Nilaparvata lugens (brown planthopper) at 0.016 ppm measured after 7 days relative to control
[12] = test system: Nilaparvata lugens; assay: Effect on oviposition in Nilaparvata lugens (brown planthopper) assessed as eggs laid at 0.0032 ppm measured after 7 days relative to control
[13] = test system: Nilaparvata lugens; assay: Effect on oviposition in Nilaparvata lugens (brown planthopper) assessed as eggs laid at 0.00064 ppm measured after 7 days relative to control
[14] = test system: Nilaparvata lugens; assay: Effect on oviposition in Nilaparvata lugens (brown planthopper) assessed as eggs laid at 0.08 ppm measured after 7 days relative to control
[15] = test system: Nilaparvata lugens; assay: Effect on oviposition in Nilaparvata lugens (brown planthopper) assessed as eggs laid at 0.016 ppm measured after 7 days relative to control
[16] = test system: Nilaparvata lugens; assay: Effect on oviposition in Nilaparvata lugens (brown planthopper) assessed as eggs laid at 0.4 ppm measured after 7 days relative to control
[17] = test system: Nilaparvata lugens; assay: Effect on oviposition in Nilaparvata lugens (brown planthopper) assessed as eggs laid at 2 ppm measured after 7 days relative to control
[18] = test system: Nilaparvata lugens; assay: Effect on oviposition in Nilaparvata lugens (brown planthopper) assessed as eggs laid at 10 ppm measured after 7 days relative to control
[19] = test system: Nilaparvata lugens; assay: Insecticidal activity against Nilaparvata lugens (brown planthopper) assessed as mortality at 0.0000256 ppm measured after 7 days relative to control; conditions: 168 h
[20] = test system: Nilaparvata lugens; assay: Insecticidal activity against Nilaparvata lugens (brown planthopper) assessed as mortality at 0.000128 ppm measured after 7 days relative to control; conditions: 168 h
[21] = test system: Nilaparvata lugens; assay: Insecticidal activity against Nilaparvata lugens (brown planthopper) assessed as mortality at 0.00064 ppm measured after 7 days relative to control; conditions: 168 h
[22] = test system: Nilaparvata lugens; assay: Insecticidal activity against Nilaparvata lugens (brown planthopper) assessed as mortality at 0.0032 ppm measured after 7 days relative to control; conditions: 168 h
[23] = test system: Nilaparvata lugens; assay: Insecticidal activity against Nilaparvata lugens (brown planthopper) assessed as mortality at 0.016 ppm measured after 7 days relative to control; conditions: 168 h
[24] = test system: Nilaparvata lugens; assay: Insecticidal activity against Nilaparvata lugens (brown planthopper) fifth-instar nymphs assessed as mortality at 50 ppm measured after 7 days; conditions: 168 h
[25] = test system: Nilaparvata lugens; assay: Effect on hatchability in Nilaparvata lugens (brown planthopper) at 0.08 ppm measured after 7 days relative to control
[26] = test system: Nilaparvata lugens; assay: Effect on hatchability in Nilaparvata lugens (brown planthopper) at 0.4 ppm measured after 7 days relative to control
[27] = test system: Nilaparvata lugens; assay: Effect on hatchability in Nilaparvata lugens (brown planthopper) at 2 ppm measured after 7 days relative to control
[28] = test system: Nilaparvata lugens; assay: Effect on oviposition in Nilaparvata lugens (brown planthopper) assessed as eggs laid at 0.0000256 ppm measured after 7 days relative to control
[29] = test system: Nilaparvata lugens; assay: Effect on oviposition in Nilaparvata lugens (brown planthopper) assessed as eggs laid at 0.000128 ppm measured after 7 days relative to control
[30] = test system: Nilaparvata lugens; assay: Insecticidal activity against Nilaparvata lugens (brown planthopper) assessed as mortality at 0.08 ppm measured after 7 days relative to control; conditions: 168 h
[31] = test system: Nilaparvata lugens; assay: Insecticidal activity against Nilaparvata lugens (brown planthopper) assessed as mortality at 0.4 ppm measured after 7 days relative to control; conditions: 168 h
[32] = test system: Nilaparvata lugens; assay: Insecticidal activity against Nilaparvata lugens (brown planthopper) assessed as mortality at 2 ppm measured after 7 days relative to control; conditions: 168 h
[33] = test system: Nilaparvata lugens; assay: Insecticidal activity against Nilaparvata lugens (brown planthopper) assessed as mortality at 10 ppm measured after 7 days relative to control; conditions: 168 h
[34] = test system: Nilaparvata lugens; assay: Insecticidal activity against Nilaparvata lugens (brown planthopper) assessed as mortality at 50 ppm measured after 7 days relative to control; conditions: 168 h
[35] = test system: Nilaparvata lugens; assay: Insecticidal activity against Nilaparvata lugens (brown planthopper) emerged female adult assessed as mortality at 0.0000256 ppm measured after 7 days relative to control; conditions: 168 h
[36] = test system: Nilaparvata lugens; assay: Insecticidal activity against Nilaparvata lugens (brown planthopper) emerged female adult assessed as mortality at 0.000128 ppm measured after 7 days relative to control; conditions: 168 h
[37] = test system: Nilaparvata lugens; assay: Insecticidal activity against Nilaparvata lugens (brown planthopper) emerged female adult assessed as mortality at 0.0032 ppm measured after 7 days relative to control; conditions: 168 h
[38] = test system: Nilaparvata lugens; assay: Insecticidal activity against Nilaparvata lugens (brown planthopper) emerged female adult assessed as mortality at 0.00064 ppm measured after 7 days relative to control; conditions: 168 h
[39] = test system: Nilaparvata lugens; assay: Insecticidal activity against Nilaparvata lugens (brown planthopper) emerged female adult assessed as mortality at 0.016 ppm measured after 7 days relative to control; conditions: 168 h
[40] = test system: Nilaparvata lugens; assay: Insecticidal activity against Nilaparvata lugens (brown planthopper) emerged female adult assessed as mortality at 0.08 ppm measured after 7 days relative to control; conditions: 168 h
[41] = test system: Nilaparvata lugens; assay: Insecticidal activity against Nilaparvata lugens (brown planthopper) emerged female adult assessed as mortality at 0.4 ppm measured after 7 days relative to control; conditions: 168 h
[42] = test system: Nilaparvata lugens; assay: Insecticidal activity against Nilaparvata lugens (brown planthopper) emerged female adult assessed as mortality at 2 ppm measured after 7 days relative to control; conditions: 168 h
[43] = test system: Nilaparvata lugens; assay: Insecticidal activity against Nilaparvata lugens (brown planthopper) emerged female adult assessed as mortality at 10 ppm measured after 7 days relative to control; conditions: 168 h
[44] = test system: Nilaparvata lugens; assay: Insecticidal activity against Nilaparvata lugens (brown planthopper) fifth-instar nymphs assessed as mortality at 0.0000256 ppm measured after 7 days; conditions: 168 h
[45] = test system: Nilaparvata lugens; assay: Insecticidal activity against Nilaparvata lugens (brown planthopper) fifth-instar nymphs assessed as mortality at 0.000128 ppm measured after 7 days; conditions: 168 h
[46] = test system: Nilaparvata lugens; assay: Insecticidal activity against Nilaparvata lugens (brown planthopper) fifth-instar nymphs assessed as mortality at 0.00064 ppm measured after 7 days; conditions: 168 h
[47] = test system: Nilaparvata lugens; assay: Insecticidal activity against Nilaparvata lugens (brown planthopper) fifth-instar nymphs assessed as mortality at 0.0032 ppm measured after 7 days; conditions: 168 h
[48] = test system: Nilaparvata lugens; assay: Insecticidal activity against Nilaparvata lugens (brown planthopper) fifth-instar nymphs assessed as mortality at 0.08 ppm measured after 7 days; conditions: 168 h
[49] = test system: Nilaparvata lugens; assay: Insecticidal activity against Nilaparvata lugens (brown planthopper) fifth-instar nymphs assessed as mortality at 0.016 ppm measured after 7 days; conditions: 168 h
[50] = test system: Nilaparvata lugens; assay: Insecticidal activity against Nilaparvata lugens (brown planthopper) fifth-instar nymphs assessed as mortality at 0.4 ppm measured after 7 days; conditions: 168 h
[51] = test system: Nilaparvata lugens; assay: Insecticidal activity against Nilaparvata lugens (brown planthopper) fifth-instar nymphs assessed as mortality at 2 ppm measured after 7 days; conditions: 168 h
[52] = test system: Nilaparvata lugens; assay: Insecticidal activity against Nilaparvata lugens (brown planthopper) fifth-instar nymphs assessed as mortality at 10 ppm measured after 7 days; conditions: 168 h
[53] = test system: Nilaparvata lugens; assay: Effect on hatchability in Nilaparvata lugens (brown planthopper) at 10 ppm measured after 7 days relative to control

Compound: CC(C)N1C(=O)N(c2ccccc2)CS/C1=N\C(C)(C)C [BUPROFEZIN]
- Activity [1]: 106%
- Activity [2]: 101%
- Activity [3]: 78%
- Activity [4]: 28%
- Activity [5]: 103%
- Activity [6]: 106%
- Activity [7]: 107%
- Activity [8]: 98%
- Activity [9]: 106%
- Activity [10]: 100%
- Activity [11]: 96%
- Activity [12]: 115%
- Activity [13]: 88%
- Activity [14]: 111%
- Activity [15]: 92%
- Activity [16]: 79%
- Activity [17]: 36%
- Activity [18]: 0%
- mortality at 2.56e-05 ppm [19]: 0%
- mortality at 0.000128 ppm [20]: 11%
- mortality at 0.00064 ppm [21]: 0%
- mortality at 0.0032 ppm [22]: 0%
- mortality at 0.016 ppm [23]: 3%
- mortality at 50 ppm [24]: 100%
- Activity [25]: 98%
- Activity [26]: 97%
- Activity [27]: 74%
- Activity [28]: 97%
- Activity [29]: 117%
- mortality at 0.08 ppm [30]: 9%
- mortality at 0.4 ppm [31]: 19%
- mortality at 2 ppm [32]: 69%
- mortality at 10 ppm [33]: 95%
- mortality at 50 ppm [34]: 100%
- mortality at 2.56e-05 ppm [35]: 0%
- mortality at 0.000128 ppm [36]: 11%
- mortality at 0.0032 ppm [37]: 0%
- mortality at 0.00064 ppm [38]: 0%
- mortality at 0.016 ppm [39]: 3%
- mortality at 0.08 ppm [40]: 9%
- mortality at 0.4 ppm [41]: 13%
- mortality at 2 ppm [42]: 69%
- mortality at 10 ppm [43]: 57%
- mortality at 2.56e-05 ppm [44]: 0%
- mortality at 0.000128 ppm [45]: 0%
- mortality at 0.00064 ppm [46]: 0%
- mortality at 0.0032 ppm [47]: 0%
- mortality at 0.08 ppm [48]: 0%
- mortality at 0.016 ppm [49]: 0%
- mortality at 0.4 ppm [50]: 7%
- mortality at 2 ppm [51]: 0%
- mortality at 10 ppm [52]: 89%

Compound: CC1(C)[C@H](C(=O)O[C@H](C#N)c2cccc(Oc3ccccc3)c2)[C@@H]1C=C(Br)Br [DELTAMETHRIN]
- Activity [1]: 120%
- Activity [2]: 102%
- Activity [3]: 125%
- Activity [4]: 112%
- Activity [5]: 102%
- Activity [6]: 133%
- Activity [7]: 114%
- Activity [8]: 110%
- Activity [9]: 131%
- Activity [10]: 113%
- Activity [11]: 98%
- Activity [12]: 136%
- Activity [13]: 116%
- Activity [14]: 112%
- Activity [15]: 128%
- Activity [16]: 124%
- Activity [17]: 109%
- Activity [18]: 101%
- mortality at 2.56e-05 ppm [19]: 4%
- mortality at 0.000128 ppm [20]: 0%
- mortality at 0.00064 ppm [21]: 4%
- mortality at 0.0032 ppm [22]: 0%
- mortality at 0.016 ppm [23]: 9%
- mortality at 50 ppm [24]: 100%
- Activity [25]: 98%
- Activity [26]: 94%
- Activity [27]: 92%
- Activity [53]: 98%
- Activity [28]: 107%
- Activity [29]: 105%
- mortality at 0.08 ppm [30]: 2%
- mortality at 0.4 ppm [31]: 9%
- mortality at 2 ppm [32]: 4%
- mortality at 10 ppm [33]: 40%
- mortality at 50 ppm [34]: 100%
- mortality at 2.56e-05 ppm [35]: 4%
- mortality at 0.000128 ppm [36]: 0%
- mortality at 0.0032 ppm [37]: 0%
- mortality at 0.00064 ppm [38]: 4%
- mortality at 0.016 ppm [39]: 9%
- mortality at 0.08 ppm [40]: 0%
- mortality at 0.4 ppm [41]: 0%
- mortality at 2 ppm [42]: 0%
- mortality at 10 ppm [43]: 0%
- mortality at 2.56e-05 ppm [44]: 0%
- mortality at 0.000128 ppm [45]: 0%
- mortality at 0.00064 ppm [46]: 0%
- mortality at 0.0032 ppm [47]: 0%
- mortality at 0.08 ppm [48]: 2%
- mortality at 0.016 ppm [49]: 0%
- mortality at 0.4 ppm [50]: 9%
- mortality at 2 ppm [51]: 4%
- mortality at 10 ppm [52]: 40%

From ChEMBL document CHEMBL3046876, “Effect of Buprofezin on Oviposition of Brown Planthopper, Nilaparvata lugens, at Sub-lethal Dose” (1996)
